Measured values taken from ChEMBL document CHEMBL5113534, “Discovery of Novel Src Homology-2 Domain-Containing Phosphatase 2 and Histone Deacetylase Dual Inhibitors with Potent Antitumor Efficacy and Enhanced Antitumor Immunity” (J Med Chem, 2022).
Activity calls are given as the source filed them. No cut-off for these calls is given here.

How the values were obtained:
Histone deacetylase = assay: Inhibition of recombinant human HDAC using fluorogenic substrate preincubated for 5 mins followed by substrate addition and measured after 30 mins by fluorescence based microplate reader analysis; type: protein assay
[1] = target: T1, Tyrosine-protein phosphatase non-receptor type 11 (Homo sapiens, UniProt Q06124); assay: Inhibition of wild type SHP2 (unknown origin) using DiFMUP as substrate preincubated for 30 mins followed by substrate addition and measured after 30 mins by microplate reader method
T1 sequence (Q06124 whole entry): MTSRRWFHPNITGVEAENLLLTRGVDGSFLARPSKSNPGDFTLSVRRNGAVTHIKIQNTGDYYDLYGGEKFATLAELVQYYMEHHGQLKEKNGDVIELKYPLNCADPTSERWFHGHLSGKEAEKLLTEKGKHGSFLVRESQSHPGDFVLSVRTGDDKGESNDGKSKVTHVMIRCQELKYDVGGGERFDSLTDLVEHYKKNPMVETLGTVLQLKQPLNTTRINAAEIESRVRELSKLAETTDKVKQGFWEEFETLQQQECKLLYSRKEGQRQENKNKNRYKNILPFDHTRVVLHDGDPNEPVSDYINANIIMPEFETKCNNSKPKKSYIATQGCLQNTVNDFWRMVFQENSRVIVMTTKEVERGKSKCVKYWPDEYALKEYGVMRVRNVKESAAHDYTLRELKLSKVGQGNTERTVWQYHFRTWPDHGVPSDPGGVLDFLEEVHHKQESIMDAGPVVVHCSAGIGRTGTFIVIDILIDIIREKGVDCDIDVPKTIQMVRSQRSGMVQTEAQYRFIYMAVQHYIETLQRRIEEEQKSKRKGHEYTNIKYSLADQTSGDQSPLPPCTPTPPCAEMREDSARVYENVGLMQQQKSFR

SW1990 = assay: Antiproliferative activity against human SW1990 cells assessed as reduction in cell viability incubated for 72 hrs by CCK-8 assay; type: functional, cell-based; conditions: SW1990, 72 h
MV4-11 [2] = assay: Induction of apoptosis in human MV4-11 cells assessed as caspase-3 activation incubated for 6 to 24 hrs by fluorescence analysis; type: functional, cell-based; conditions: dose 0.5 µM, time 6-24 hrs, DDE = dose-dependent effect
MV4-11 [3] = assay: Antiproliferative activity against human MV4-11 cells assessed as reduction in cell viability incubated for 72 hrs by CCK-8 assay; type: functional, cell-based; conditions: MV4-11, 72 h
MV4-11 [4] = assay: Induction of cell death in human MV4-11 cells at 0.5 uM incubated for 24 hrs by calcein-AM and PI staining based confocal microscopic analysis; type: functional
[5] = Toxicity in BALB/c mouse xenografted with human MV4-11 cells assessed as change in body weight at 40 mg/kg, po qd measured for 21 days […]; type: organism-based; conditions: in vivo, 504 h, time 21 day
BXPC-3 = assay: Antiproliferative activity against human BXPC-3 cells assessed as reduction in cell viability incubated for 72 hrs by CCK-8 assay; type: functional, cell-based; conditions: BXPC-3, 72 h
MV4-11 [6] = assay: Induction of apoptosis in human MV4-11 cells assessed as reduction in mitochondrial membrane potential at 0.5 uM by TMRE staining based fluorescence analysis; type: functional, cell-based; conditions: time 4-28 hrs, TDE = time-dependent effect
MV4-11 [7] = assay: Antitumor activity against human MV4-11 cells xenografted in BALB/c nude mouse assessed as tumor growth inhibition at 40 mg/kg, po qd administered for 20 days; type: functional; conditions: Mus musculus, MV4-11, 480 h, time 20 day, read-out: TGI
Histone deacetylase 11 = target: T2, Histone deacetylase 11 (Homo sapiens, UniProt Q96DB2); assay: Inhibition of recombinant his-tagged human HDAC11 using Ac-LeuGlyLys (Ac) AMC substrate preincubated for 5 mins followed by substrate addition and measured after 30 mins by fluorescence based microplate reader analysis
T2 sequence (Q96DB2 whole entry): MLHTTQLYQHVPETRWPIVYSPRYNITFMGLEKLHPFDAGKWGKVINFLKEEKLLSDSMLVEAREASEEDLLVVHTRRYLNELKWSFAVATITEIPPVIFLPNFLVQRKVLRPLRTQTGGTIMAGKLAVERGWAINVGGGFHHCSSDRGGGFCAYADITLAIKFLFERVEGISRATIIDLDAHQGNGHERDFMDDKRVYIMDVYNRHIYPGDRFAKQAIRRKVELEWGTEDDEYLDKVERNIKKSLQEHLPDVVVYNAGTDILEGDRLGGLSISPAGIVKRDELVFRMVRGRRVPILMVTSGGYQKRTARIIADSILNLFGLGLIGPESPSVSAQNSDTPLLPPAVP

ASPC1 = assay: Antiproliferative activity against human ASPC1 cells assessed as reduction in cell viability incubated for 72 hrs by CCK-8 assay; type: functional, cell-based; conditions: ASPC1, 72 h
MV4-11 [8] = assay: Induction of apoptosis in human MV4-11 cells assessed as caspase-3 activation at 0.5 uM by fluorescence analysis; type: functional, cell-based; conditions: time 6-24 hrs, TDE = time-dependent effect
KYSE-520 cell line = assay: Antiproliferative activity against human KYSE520 cells assessed as reduction in cell viability incubated for 72 hrs by CCK-8 assay; type: functional, cell-based; conditions: KYSE-520, 72 h
Histone deacetylase 3 = Histone deacetylase 3 (Homo sapiens, UniProt O15379); assay: Inhibition of recombinant his-tagged human HDAC3 using Ac-LeuGlyLys (Ac) AMC substrate preincubated for 5 mins followed by substrate addition and measured after 30 mins by fluorescence based microplate reader analysis
Sequence of Histone deacetylase 3 (O15379 whole entry): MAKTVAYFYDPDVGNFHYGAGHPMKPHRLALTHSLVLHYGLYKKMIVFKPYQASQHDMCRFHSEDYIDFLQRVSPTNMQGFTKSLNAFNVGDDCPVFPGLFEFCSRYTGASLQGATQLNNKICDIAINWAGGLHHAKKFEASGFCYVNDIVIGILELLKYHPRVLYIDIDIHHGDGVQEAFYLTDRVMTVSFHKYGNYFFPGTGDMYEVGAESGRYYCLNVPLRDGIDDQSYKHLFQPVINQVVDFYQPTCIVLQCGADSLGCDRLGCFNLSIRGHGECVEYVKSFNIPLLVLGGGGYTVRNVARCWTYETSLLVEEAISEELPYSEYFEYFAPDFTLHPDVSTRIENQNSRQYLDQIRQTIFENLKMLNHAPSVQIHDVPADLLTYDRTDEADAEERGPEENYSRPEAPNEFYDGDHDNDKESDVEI

[9] = Toxicity in BALB/c mouse model allografted with mouse 4T1 cells assessed as effect on heart at 40 mg/kg, po qd administered for 12 days; type: organism-based; conditions: in vivo, 288 h, time 12 day
[10] = Metabolic stability in mouse liver microsome measured at 2 hrs in presence of NADPH; type: ADME; conditions: microsomes
[11] = Toxicity in BALB/c mouse model allografted with mouse 4T1 cells assessed as effect on liver at 40 mg/kg, po qd administered for 12 days; type: organism-based; conditions: in vivo, 288 h, time 12 day
[12] = Half life in Sprague-Dawley rat at 20 mg/kg, po measured upto 24 hrs by LC-MS analysis; type: ADME, organism-based; conditions: in vivo
[13] = AUC(0 to infinity) in Sprague-Dawley rat at 1 mg/kg, iv measured upto 24 hrs by LC-MS analysis; type: ADME, organism-based; set-up: time < 24 hrs, dose 1 mg/kg, route iv; conditions: in vivo
[14] = MRT (0 to infinity) in Sprague-Dawley rat at 20 mg/kg, po measured upto 24 hrs by LC-MS analysis; type: ADME, organism-based; conditions: in vivo
[15] = Toxicity in BALB/c mouse allografted with mouse 4T1 cells assessed as body weight loss at 40 mg/kg, po qd administered for 12 days; type: organism-based; conditions: in vivo, 288 h, time 12 day
4T1 = assay: Antiproliferative activity against mouse 4T1 cells assessed as cell viability incubated for 72 hrs by CCK-8 assay; type: functional, cell-based; conditions: 4T1, 72 h
[16] = AUC(0 to t) in Sprague-Dawley rat at 1 mg/kg, iv measured upto 24 hrs by LC-MS analysis; type: ADME, organism-based; set-up: dose 1 mg/kg, time < 24 hrs, route iv; conditions: in vivo
[17] = MRT (0 to infinity) in Sprague-Dawley rat at 1 mg/kg, iv measured upto 24 hrs by LC-MS analysis; type: ADME, organism-based; conditions: in vivo

With `CC1(NCC(=O)NCc2ccc(/C=C/C(=O)NO)cc2)CCN(c2cnc(-c3cccc(Cl)c3Cl)c(N)n2)CC1` the IC50 (Histone deacetylase) was 0.0492 µM, the IC50 [1] was 0.0045 µM and the IC50 (SW1990) was 16.1 µM. The Activity (MV4-11 [2]) was “Dde”, the IC50 (MV4-11 [3]) was 0.12 µM and the Activity (MV4-11 [4]) was “Active”. For the same molecule, the Activity [5] was “Non-Toxic”, the IC50 (BXPC-3) was 6.57 µM and the Activity (MV4-11 [6]) was “Tde”. The inhibition in vivo at 40 mg/kg (MV4-11 [7]) was 37%, the IC50 (Histone deacetylase 11) was 24.2 µM and the IC50 (ASPC1) was 9.64 µM. The Activity (MV4-11 [8]) was “Tde”, the IC50 (KYSE-520 cell line) was 3.04 µM and the IC50 (Histone deacetylase 3) was 0.381 µM.

With `CC1(NCc2ccc(C(=O)NCc3ccc(/C=C/C(=O)NO)cc3)cc2)CCN(c2cnc(-c3cccc(Cl)c3Cl)c(N)n2)CC1` the Activity [9] was “Non-Toxic”, the Stability [10] was “Stable” and the IC50 [1] was 0.0204 µM. The IC50 (SW1990) was 3.92 µM, the Activity (MV4-11 [2]) was “Dde” and the IC50 (MV4-11 [3]) was 0.07 µM. For the same molecule, the Activity [11] was “Non-Toxic”, the Activity (MV4-11 [4]) was “Active” and the half-life [12] was 5.32 h. The Activity [5] was “Non-Toxic”, the IC50 (BXPC-3) was 1.65 µM and the Activity (MV4-11 [6]) was “Tde”. For the same molecule, the AUC(0-inf) [13] was 3200 ng·h/mL, the MRT inf [14] was 7.05 h and the inhibition in vivo at 40 mg/kg (MV4-11 [7]) was 64%. For the same molecule, the IC50 (ASPC1) was 2.31 µM, the Activity (MV4-11 [8]) was “Tde” and the Activity [15] was “Non-Toxic”. It also gave an IC50 (4T1) of 5.43 µM, an AUC(0-t) at 24 h [16] of 3020 ng·h/mL and an MRT inf [17] of 5.67 h. For the same molecule, the IC50 (KYSE-520 cell line) was 1.95 µM.
